Measured values reported in US20240197716A1, “TREATMENTS FOR CUSHING'S SYNDROME THAT DO NOT SIGNIFICANTLY AFFECT CARDIAC RHYTHMS” (Corcept Therapeutics Incorporated, priority 2022, published 2024).
Values belong to the molecule of their own block, whether it stands above or below them. Starred links: 1 amine or outer side, 2 acyl side, 3 side chain; linkers in the order of their positions; H or OH if unused. Non-standard residues stand in square brackets, D forms with d. Residues, ends and D or L forms follow the SMILES beside them. Groups on a side chain read outwards from the residue. *: point of attachment. Ethylenediamine = C(CN[*:2])N[*:1]; Hyp = O=C(O)[C@@H]1C[C@@H](O)CN1; Phg = N[C@H](C(=O)O)c1ccccc1; CO = O=C([*:1])[*:2]; Bn = c1ccc(C*)cc1

Columns and labels:
[1] = system: QT interval; details: in vivo; cited from earlier work
[2] = Plasma concentrations in TQT study (LC-MS/MS, non-compartmental PK); format: in vivo, human; details: human, plasma, oral; 400 mg single dose; read-out: Geometric Mean Cmax
Description: PK analyses were performed using non-compartmental methods to obtain estimates of the following parameters, where possible: […] Day 1: Cmax, Tmax, AUClast, and AUC0-24; Day 5: Cmax, Tmax, Cmin, AUClast, AUC0-tau, Cavg, FI, and AR. For moxifloxacin: Cmax, Tmax, AUClast, and AUC0-24. […] PK blood sampling for Day 1 was completed prior to dosing on Day 2.

[3] = system: cardiac repolarization in healthy volunteers; assay: Thorough QT/QTc (TQT) study (NCT04795479), cardiodynamic Holter ECG
Source text: These studies included a randomized, partial double-blind, placebo- and positive-controlled, multiple-dose, 4-way crossover, thorough QT/QTc (TQT) study to investigate the effect of relacorilant on cardiac repolarization. These studies measured placebo-corrected change-from-baseline QTcF (ΔΔQTcF); change-from-baseline of QTcF, HR, and PR and QRS intervals (ΔQTcF, ΔHR, ΔPR, and ΔQRS); placebo-corrected change-from-baseline of HR, and PR and QRS intervals (ΔΔHR, ΔΔPR, and ΔΔQRS); categorical outliers for QTcF, HR, and PR and QRS intervals; the frequency of treatment-emergent changes of T-wave morphology and presence of U-waves; PK parameters of relacorilant and its metabolites (CORT125337, CORT125336, and CORT125295) and moxifloxacin; safety profiles, including AEs/SAEs, physical examination, clinical chemistry, hematology, urinalysis, ECG, and vital signs.
A phase 1, randomized, partial double-blind, crossover thorough QT study (NCT04795479) to assess the effect of multiple doses of relacorilant on cardiac repolarization in healthy volunteers. Participants were randomized to dosing sequences to receive relacorilant at therapeutic (400 mg QD, n=25) or supra-therapeutic (800 mg QD, n=28) doses, or placebo (n=29) for 5 days. Moxifloxacin (400 mg single dose, n=28) was used as a positive control.
Each subject received 4 treatments in a randomized sequence during the study period. Each dosing consisted of 8 capsules (except for moxifloxacin on Day 5), including: • Treatment T: Multiple oral doses of 400 mg relacorilant (4 capsules)+placebo for relacorilant (4 capsules) once daily for 5 days; • Treatment ST: Multiple oral doses of 800 mg relacorilant (8 capsules) once daily for 5 days; • Treatment P: Multiple oral doses of placebo for relacorilant (8 capsules) once daily for 5 days; • Treatment M: Multiple oral doses of placebo for relacorilant (8 capsules) once daily for 4 days and a final single oral dose of 400 mg moxifloxacin (one tablet) on Day 5.
In a portion of present study conducted in healthy subjects, a single dose of moxifloxacin (400 mg; Treatment M) on the last day of its respective treatment period was included as a positive control to determine the sensitivity of the study to detect small QTc changes. Relacorilant doses included both a therapeutic dose level (400 mg; Treatment T) and a supra-therapeutic dose level (800 mg; Treatment ST). The study was blinded to subjects, investigator, study staff, and sponsor with respect to relacorilant (Treatments T and ST) and placebo for relacorilant (Treatment P); it was open-labeled for moxifloxacin (Treatment M). Enrolled subjects were randomized to one of twelve (12) dosing sequences to receive 4 different treatments according to the assigned dosing sequence as shown below:
In each period, subjects were admitted to the clinical site in the morning of Day-1 and stayed in the site until the morning of Day 6. In the study periods when subjects were randomized to Treatment T, ST, or P, the applicable study product (400 mg or 800 mg relacorilant or placebo for relacorilant) were taken once daily in the morning for 5 consecutive days. During the dosing period of positive control (Treatment M), placebo for relacorilant were administered on Days 1 to 4 to align with the dosing schedule for the other three treatments and moxifloxacin were administered in an open-labeled manner as a single dose in the morning of Day 5. Therefore, the treatment on Days 1 to 4 were double-blinded; it was not known before the morning on Day 5 whether or not a subject was allocated to receive moxifloxacin. Each dosing period (from Periods 2 to 4) was separated from the previous period by a washout period of at least 10 days from Day 6 of the previous period to Day 1 (first dose) of the subsequent period to prevent a carryover effect. The final visit was on Day 6 of Period 4. A safety phone follow-up was scheduled at 7 days (±2 days) post the final visit/early termination (ET) visit.

Compound: NCCCC[C@@H]1NC(=O)[C@@H](Cc2c[nH]c3ccccc23)NC(=O)[C@H](c2ccccc2)NC(=O)[C@@H]2C[C@@H](OC(=O)NCCN)CN2C(=O)[C@H](Cc2ccccc2)NC(=O)[C@H](Cc2ccc(OCc3ccccc3)cc2)NC1=O [pasoreotide] (cyclo([Hyp]([CO-Ethylenediamine])[Phg][dW]KY(Bn)F))
effect on QT interval (literature) [1]: associated with QT interval prolongation

Compound: CC(=O)N1CCN(c2ccc(OC[C@@H]3CO[C@@](Cn4ccnc4)(c4ccc(Cl)cc4Cl)O3)cc2)CC1 [levoketoconazole]
effect on QT interval (literature) [1]: associated with QT interval prolongation

Compound: N#Cc1ccc([C@H]2CCc3cncn32)c(F)c1 [osilodrostat]
effect on QT interval (literature) [1]: associated with QT interval prolongation

Cmax [2]: 1870 ng/mL
Compound: COc1c(N2C[C@@H]3CCCN[C@@H]3C2)c(F)cc2c(=O)c(C(=O)O)cn(C3CC3)c12 [moxifloxacin, 1-cyclopropyl-7-[(S,S)-2,8-diazabicyclo[4.3.0]non-8-yl]-6-fluoro-8-methoxy-1,4-dihydro-4-oxo-3 quinoline carboxylic acid, reference compound]
effect on QT interval (literature) [1]: prolong the QT interval of the electrocardiogram in some patients
LS mean (90% CI) ΔΔQTcF, peak value ([3]; 400 mg on day 5, 1.5 hours post-dose): 10.7 (7.3, 14.1) msec
QT effect of positive control ([3]; 400 mg single dose): expected QT prolongation
LS mean (90% CI) ΔQTcF ([3]; 400 mg single dose on day 5, 1 hour post-dose): 5.7 (3.3, 8.2) msec
LS mean (90% CI) ΔQTcF, maximum observed value ([3]; 400 mg single dose on day 5, 16 hours post-dose): 9.7 (7.2, 12.2) msec
ΔΔQTcF Estimate (msec) (90% CI), predicted at geometric mean Cmax ([3]; 400 mg single dose, PK/QTc population): 8.90 (5.96, 11.85)^2 msec
lower bound of the 90% CI around the LS mean ΔΔQTcF ([3]; 400 mg, at 4 of the 12 post-dose time points): exceeded 5 msec
